Measurements as given in ChEMBL document CHEMBL5724914, “Linking interpersonal differences in gut microbiota composition and drug biotransformation activity” (2024).

How the values were obtained:
[1] = (§1) The drug is tested on WLS-006 corresponding to human gut metagenome with ENA study accession number: PRJEB37062 and ENA sample accession number: ERS12561741 for biotransformation under anaerobic condition. The drug concentrations were measured over 9 timepoints collected between 0 and 24 hours of incubation by liquid-chromatography-coupled mass spectrometry (LC–MS); conditions: 2 µM
[2] = human gut metagenome, 24 h, 2 µM
[3] = as §1, with “Z-006” for “WLS-006”, “mouse” for “human”, “ERS12561806” for “ERS12561741”; conditions: 2 µM
[4] = human gut metagenome, 24 h, 2 µM; remark: listed apart in the source
[5] = as §1, with “WLS-370” for “WLS-006”, “ERS12561793” for “ERS12561741”; conditions: 2 µM
[6] = as §1, with “WLS-073” for “WLS-006”, “ERS12561749” for “ERS12561741”; conditions: 2 µM
[7] = as §1, with “WLS-310” for “WLS-006”, “ERS12561785” for “ERS12561741”; conditions: 2 µM
[8] = as §1, with “Z-018” for “WLS-006”, “pig” for “human”, “ERS12561817” for “ERS12561741”; conditions: 2 µM
[9] = human gut metagenome, 24 h, 2 µM; remark: listed apart in the source
[10] = as §1, with “WLS-039” for “WLS-006”, “ERS12561746” for “ERS12561741”; conditions: 2 µM
[11] = as §1, with “WLS-038” for “WLS-006”, “ERS12561745” for “ERS12561741”; conditions: 2 µM
[12] = as §1, with “WLS-240” for “WLS-006”, “ERS12561773” for “ERS12561741”; conditions: 2 µM
[13] = human gut metagenome, 24 h, 2 µM; remark: listed apart in the source
[14] = as §1, with “WLS-220” for “WLS-006”, “ERS12561769” for “ERS12561741”; conditions: 2 µM
[15] = human gut metagenome, 24 h, 2 µM; remark: listed apart in the source
[16] = as §1, with “WLS-090” for “WLS-006”, “ERS12561753” for “ERS12561741”; conditions: 2 µM
[17] = human gut metagenome, 24 h, 2 µM; remark: listed apart in the source
[18] = human gut metagenome, 24 h, 2 µM; remark: listed apart in the source
[19] = as §1, with “Z-003” for “WLS-006”, “pig” for “human”, “ERS12561803” for “ERS12561741”; conditions: 2 µM
Note: call rule not given here.

Compound | Bacterial Biotransformation [1] | Bacterial Biotransformation [2] | Bacterial Biotransformation [3] | Bacterial Biotransformation [4] | Bacterial Biotransformation [5] | Bacterial Biotransformation [6] | Bacterial Biotransformation [7] | Bacterial Biotransformation [8] | Bacterial Biotransformation [9] | Bacterial Biotransformation [10] | Bacterial Biotransformation [11] | Bacterial Biotransformation [12] | Bacterial Biotransformation [13] | Bacterial Biotransformation [14] | Bacterial Biotransformation [15] | Bacterial Biotransformation [16] | Bacterial Biotransformation [17] | Bacterial Biotransformation [18] | Bacterial Biotransformation [19]
CCC1(c2ccc(N)cc2)CCC(=O)NC1=O (centres undefined) [AMINOGLUTETHIMIDE] | Compound NOT metabolized | Compound NOT metabolized | Compound NOT metabolized | Compound NOT metabolized | Compound NOT metabolized | Compound NOT metabolized | Compound NOT metabolized | Compound metabolized | Compound NOT metabolized | Compound NOT metabolized | Compound NOT metabolized | Compound NOT metabolized | Compound NOT metabolized | Compound NOT metabolized | Compound NOT metabolized | Compound NOT metabolized | Compound NOT metabolized | Compound NOT metabolized | Compound NOT metabolized
C[C@@H]1CC[C@H]2[C@@H](C)C(=O)O[C@@H]3O[C@@]4(C)CC[C@@H]1[C@]32OO4 [ARTEMISININ] | Compound metabolized | Compound metabolized | Compound NOT metabolized | Compound metabolized | Compound metabolized | Compound metabolized | Compound metabolized | Compound metabolized |  | Compound metabolized | Compound metabolized | Compound metabolized | Compound metabolized | Compound metabolized | Compound metabolized | Compound metabolized | Compound metabolized | Compound metabolized | 
OC(CCN1CCCCC1)(c1ccccc1)C1CC2C=CC1C2 (centres undefined) [BIPERIDEN] | Compound metabolized | Compound NOT metabolized |  | Compound NOT metabolized | Compound metabolized | Compound NOT metabolized | Compound metabolized |  | Compound metabolized | Compound NOT metabolized | Compound NOT metabolized | Compound NOT metabolized | Compound NOT metabolized | Compound NOT metabolized | Compound NOT metabolized | Compound metabolized | Compound NOT metabolized | Compound NOT metabolized | 
CC(=O)O[C@]1(C(C)=O)CC[C@H]2[C@@H]3C=C(Cl)C4=CC(=O)[C@@H]5C[C@@H]5[C@]4(C)[C@H]3CC[C@@]21C [CYPROTERONE ACETATE] | Compound metabolized | Compound metabolized |  | Compound metabolized | Compound metabolized | Compound metabolized | Compound metabolized |  | Compound metabolized | Compound metabolized | Compound metabolized | Compound metabolized | Compound metabolized | Compound metabolized | Compound metabolized | Compound metabolized | Compound metabolized | Compound NOT metabolized | Compound metabolized
CN1C[C@H](C(=O)N[C@]2(C)O[C@@]3(O)[C@@H]4CCCN4C(=O)[C@H](Cc4ccccc4)N3C2=O)C=C2c3cccc4[nH]cc(c34)C[C@H]21.CN1C[C@H](C(=O)N[C@]2(C)O[C@@]3(O)[C@@H]4CCCN4C(=O)[C@H](Cc4ccccc4)N3C2=O)C=C2c3cccc4[nH]cc(c34)C[C@H]21.O=C(O)C(O)C(O)C(=O)O [ERGOTAMINE TARTRATE] | Compound metabolized |  | Compound NOT metabolized | Compound metabolized | Compound metabolized | Compound NOT metabolized | Compound metabolized |  | Compound metabolized | Compound metabolized | Compound NOT metabolized | Compound metabolized | Compound NOT metabolized |  | Compound metabolized | Compound metabolized | Compound NOT metabolized | Compound metabolized | 
COC(=O)C1=C(C)NC(C)=C(C(=O)OC(C)C)C1c1cccc2nonc12 (centres undefined) [ISRADIPINE] | Compound NOT metabolized | Compound metabolized |  | Compound metabolized | Compound metabolized | Compound NOT metabolized | Compound metabolized |  | Compound metabolized |  | Compound NOT metabolized | Compound metabolized | Compound NOT metabolized | Compound metabolized | Compound NOT metabolized | Compound metabolized | Compound NOT metabolized | Compound NOT metabolized | Compound metabolized
CN(C(=O)CN(CCO)CC(=O)N(C)C(C)(C)Cc1ccccc1)C(C)(C)Cc1ccccc1 [OXETHAZAINE] | Compound metabolized | Compound metabolized |  | Compound metabolized | Compound metabolized | Compound metabolized | Compound metabolized |  | Compound metabolized | Compound metabolized | Compound metabolized | Compound metabolized | Compound NOT metabolized | Compound metabolized | Compound metabolized | Compound metabolized | Compound NOT metabolized | Compound metabolized | 
Cc1nc2n(c(=O)c1CCN1CCC(c3noc4cc(F)ccc34)CC1)CCCC2O (centres undefined) [PALIPERIDONE] | Compound metabolized | Compound metabolized |  | Compound metabolized | Compound metabolized | Compound metabolized | Compound metabolized | Compound NOT metabolized | Compound metabolized | Compound metabolized | Compound metabolized | Compound metabolized | Compound metabolized | Compound metabolized | Compound metabolized | Compound metabolized | Compound metabolized | Compound metabolized | Compound NOT metabolized
